{"source": "patent US20260248771A1", "about": "“VALBENAZINE, A VMAT2 INHIBITOR, AS A FREE BASE A TOSYLATE OR DITOSYLATE SALT, FOR USE IN THE TREATMENT OF CHOREA ASSOCIATED WITH HUNTINGTON'S DISEASE” (Neurocrine Biosciences, Inc., priority 2022, published 2026)", "type_in_all_cases": "in vivo, human", "key": {"subjects with HD [1]": {"system": "subjects with HD", "test": "Phase 3 study: UHDRS total motor score (TMS)", "details": "MMRM model; valbenazine vs placebo", "text": "As used herein, “Unified Huntington Disease Rating Scale” or “UHDRS” is the standard clinical assessment tool in Huntington disease. The UHDRS is divided into four domains: motor performance, cognitive function, behavioral abnormalities, and functional abilities. The motor section consists of 31 items assessing oculomotor, bradykinesia/rigidity, dystonia, chorea, and gait/balance. The items are rated from zero to four, with zero indicating normal findings and four indicating severe abnormalities. The range of the Total Motor Score (TMS) is 0 to 124, with higher scores indicating more severe motor impairment. The cognitive component includes the verbal fluency test, the symbol digit modalities test, and the Stroop test (color naming, word reading, and interference). Lower scores indicate worse cognitive performance. The behavioral assessment measures the frequency and severity of 11 items, which are rated from zero (almost never/absent) to four (almost always/severe). The items assess depression, anxiety, aggression, psychosis, and other behavioral abnormalities. The behavioral score ranges from 0 to 88, with higher scores indicating more severe psychiatric abnormalities. The functional domain comprises three components, namely the total functional capacity (TFC), the functional assessment scale (FAS), and the independence scale (IS). […]"}, "subjects with HD [2]": {"system": "subjects with HD", "test": "Phase 3 study: Short Form 36 Health Survey (SF-36)", "details": "Week 12", "text": "(§1) Exploratory endpoints included: • Wearable movement sensors (in select sites; optional participation) using MC10 Inc., BIOSTAMP® NPOINT® system • Huntington Disease Health Index • Changes from the screening period baseline to each postbaseline study visit (Weeks 2 through 12) in the TMC based on site assessments • Changes from the screening period baseline to maintenance (the average of the Week 10 and Week 12 assessments) in the TMC based on video recording central rater assessments • CGI-C response at Weeks 2 through 10 • PGI-C response at Weeks 2 through 10 • The change from baseline to Weeks 4, 8, and 10 in the Neuro-QoL Upper Extremity Function T-score. • The change from baseline to Weeks 4, 8, and 10 in the Neuro-QoL Lower Extremity Function T-score • CGI-S at Weeks 2 through 12 • PGI-S at Weeks 2 through 12 • SF-36 at Week 12 • HD-HI at Week 10 and Week 12 • EQ-5D-5L at Week 10 and Week 12 • UHDRS scores for motor, behavior, and functional capacity assessment at Weeks 2 through 12 • Other UHDRS scores including functional assessment and independence scale at Week 12 • AS at Week 12 • Change from screening period in physical activity by movement sensors at the Week 10 visit period\nThe SF-36 is 36-item questionnaire that measures health on 8 dimensions. […]"}, "subjects with HD [3]": {"system": "subjects with HD", "test": "Phase 3 study: Anosognosia Scale", "details": "baseline to Week 12; either treatment group", "text": "as §1"}, "subjects with HD [4]": {"system": "subjects with HD", "test": "Phase 3 study: Neuro-QoL Lower Extremity Function T-score", "text": "As used herein, “Neuro-QoL” is a set of self-report measures that assesses the health-related quality of life (HRQOL) of adults and children with neurological disorders. Neuro-QoL Upper Extremity Function scale measures one's ability across fine motor and activities of daily living involving digital, manual and reach-related function and self-care. Neuro-QoL Lower Extremity Function scale measures one's ability to carry out various activities involving the trunk region and increasing degrees of bodily movement, ambulation, balance or endurance. See, National Institute of Neurological Disorders and Stroke (NINDS). User Manual for the Quality of Life in Neurological Disorders (Neuro-QoL) Measures, Version 2.0, March 2015, which is incorporated herein by reference in its entirety.\nA Phase 3, randomized, double-blind, placebo-controlled study to evaluate the efficacy, safety, and tolerability of once-daily valbenazine in subjects with HD was conducted. The study included a 4-week screening period, an 8-week dose-adjustment period, a 4-week maintenance period, and a final study visit 2 weeks following the final dose of study drug. […]"}, "subjects with HD [5]": {"system": "subjects with HD", "test": "Phase 3 study: UHDRS functional assessment, independence scale, total functional capacity", "details": "baseline to Week 12; either treatment group", "text": "as §1\nThe functional capacity portion of the UHDRS consists of 5 items. […]"}, "subjects with HD [6]": {"system": "subjects with HD", "test": "Phase 3 study: safety and tolerability (adverse events)", "protocol": "A Phase 3, randomized, double-blind, placebo-controlled study to evaluate the efficacy, safety, and tolerability of once-daily valbenazine in subjects with HD was conducted. The study included a 4-week screening period, an 8-week dose-adjustment period, a 4-week maintenance period, and a final study visit 2 weeks following the final dose of study drug.\nDuring the dose-adjustment and maintenance periods, the investigator could assess that a dose level is not tolerated if a subject experienced an adverse event (AE) that is (1) deemed associated with the study drug, and (2) of either moderate or severe intensity, or a serious AE."}}}
{"smiles": "COc1cc2c(cc1OC)[C@H]1C[C@@H](OC(=O)[C@@H](N)C(C)C)[C@H](CC(C)C)CN1CC2", "note": "[Valbenazine, (S)-2-amino-3-methyl-butyric acid (2R,3R,11bR)-3-isobutyl-9,10-dimethoxy-1,3,4,6,7,11b-hexahydro-2H-pyrido[2,1-a]isoquinolin-2-yl ester]", "values": [{"measurement": "TMS score LS mean difference, change from screening period baseline to maintenance", "setting": "subjects with HD [1]", "value": "groups: LS mean difference −3.99 (95% CI: −6.27, −1.70); p = 0.0008"}, {"measurement": "SF-36 subscales and summary scales, differences between treatment groups", "setting": "subjects with HD [2]", "value": "No notable differences were observed at Week 12 between treatment"}, {"measurement": "SF-36 subscales or summary scales, worsening from baseline", "setting": "subjects with HD [2]; valbenazine group", "value": "No worsening from baseline was observed for the valbenazine group"}, {"measurement": "Anosognosia Scale score, changes from baseline", "setting": "subjects with HD [3]", "value": "No clinically meaningful changes were noted from baseline to Week"}, {"measurement": "Neuro-QoL Lower Extremity Function T Score CFB @ week 12, LS Mean", "setting": "subjects with HD [4]; valbenazine group", "value": "−0.27"}, {"measurement": "Neuro-QoL Lower Extremity Function T Score CFB @ week 12, LS Mean, Difference", "setting": "subjects with HD [4]; valbenazine vs placebo", "value": "−0.88"}, {"measurement": "UHDRS functional assessment, independence, and total functional capacity scores, changes from baseline", "setting": "subjects with HD [5]", "value": "No clinically meaningful changes were noted from baseline to Week"}, {"measurement": "SAE and AE leading to discontinuation of study treatment", "setting": "subjects with HD [6]; both treatment groups", "value": "comparable rates and low incidence"}, {"measurement": "rates of TEAEs", "setting": "subjects with HD [6]; both treatment groups", "value": "comparable rates of TEAEs in both treatment groups"}, {"measurement": "tolerability", "setting": "subjects with HD [6]; once-daily administration", "value": "well tolerated"}, {"measurement": "somnolence (most commonly reported AE), incidence", "setting": "subjects with HD [6]; valbenazine group", "value": 15.6, "unit": "%"}, {"measurement": "suicidal behavior or worsening of suicidal ideation", "setting": "subjects with HD [6]; valbenazine treated subjects", "value": "No suicidal behavior or worsening of suicidal ideation was observed"}]}
